# According to patent US12629410B2, “Multi-antigenic peptide mimics of gonococcal lipo-oligosaccharide (LOS) epitopes” (priority 2019, dated 2026):
# “Also recorded” adds a separate entry of the source. Where two headings read alike, the source gives them in different places. Bridges are numbered along the chain shown (N, C = ends). Primed or numbered codes have the meaning given here. Where no end group is shown, it is not given here. [ ]: non-standard residue; d: D form. PEG2′ = two-unit polyethylene glycol spacer; PEG2″ = not defined here
# Assays:
# [1] = tested on: LOS purified from N. gonorrhoeae strain 15253; format: in vivo
# mAb 2C7 = assay: Inhibition ELISA: inhibition of mAb 2C7 binding to immobilized gonococcal LOS; conditions: for comparative ability to inhibit mAb 2C7 binding to LOS (antigenicity): ranking within the set of peptides tested
# Description: FIGS. 1A-1B show the structure and characterization of one of the peptide mimics described herein (also referred to as TMCP2). […] The 2C7 mimitope is indicated in shown as the sequence “H2C-CO-GPIPVLDENGLFAPGPC” (SEQ ID NO: 1) Cyclization is maintained through a thioether bond. The reverse peptide mimic core is represented the schematic of the peptide mimic as “Ac-β-Ala-Glu[Glu-OH]2.” The reverse peptide mimic core links to each cyclic peptide through a lysine (K) residue.
# In order to compare antigenicity of peptide mimic Core Peptide 2 (monomeric cyclic CP2) and composite TMCP2 compounds with LOS that expresses the 2C7 epitope, inhibition ELISA was performed using mAb 2C7 reacted with the individual compounds to assess inhibition of binding (residual binding) of mAb to LOS by each compound. Microtiter wells were coated with LOS (80 μg/ml in PBS) purified from strain FA1090. Wells were washed and blocked with PBS-0.05% Tween 20. mAb 2C7 (0.04 μg/ml) either alone or containing monomeric cyclic peptide CP2 (1.07 to 1070 μM) or composite TMCP2 (concentrations ranging from […]) was dispended into LOS coated wells. Residual binding of 2C7 mAb was measured with anti-mouse IgG conjugated to alkaline phosphatase. Bound IgG was quantitated using a mouse IgG standard curve and percent inhibition determined compared to reaction mixtures that […].
# Attempts to measure mAb 2C7 (7) binding directly to immobilized peptide mimic Core Peptide 2 (abbreviated CP2 in FIG. 1A) and composite TMCP2 by ELISA were not successful. The possibility of poor capture of the peptides by the microtiter wells was considered and therefore used an ELISA to measure inhibition of binding (residual binding) of mAb 2C7 to immobilized gonococcal LOS that had been reacted with increasing concentrations of the peptides (FIG. 1B).
# [2] = earlier peptide constructs, FIG. 18 and FIG. 19
substance,measurement,setting,value
KIPVLDENGLFAPGPC-D Lys-D Lys4-K2-K-MAP4 (not fully specified (C-terminus); also: four copies on a branched Lys (K2-K) MAP4 core) [TetraMAP 3.4],immunogenicity in BALB/c mice (IgG against 2C7+ LOS by ELISA),[1]; [2],poorly immunogenic
KIPVLDENGLFAP-D Lys-D Lys4-K2-K-MAP4 (not fully specified (C-terminus); also: four copies on a branched Lys (K2-K) MAP4 core) [TetraMAP 3.3],immunogenicity in BALB/c mice (IgG against 2C7+ LOS by ELISA),[1]; [2],poorly immunogenic
"[Ac-(CGPIPVLDENGLFAPGPC)-K-OH]4 (Ac-CGPIPVLDENGLFAPGPCK-OH; disulfide 1-18; also: tetrameric reverse MAP core) [TMCP3, disulfide-cyclized peptides on reverse MAP core]",comparative ability to inhibit mAb 2C7 binding to LOS (antigenicity),mAb 2C7,bound best
same,anti-LOS titers in immunization experiments,"[1]; tetrapeptides 50 μg/dose plus Sigma MPL adjuvant, BALB/c, FIG. 10",higher anti-LOS titers than TMCP4
(CH2-CO-GPIPVLDENGLFAPGPC)-K-OH ({CH2CO}-GPIPVLDENGLFAPGPCK-OH; thioether N-17; SMILES CC[C@H](C)[C@@H]1NC(=O)[C@@H]2CCCN2C(=O)CNC(=O)CSC[C@@H](C(=O)N[C@@H](CCCCN)C(=O)O)NC(=O)[C@@H]2CCCN2C(=O)CNC(=O)[C@@H]2CCCN2C(=O)[C@H](C)NC(=O)[C@H](Cc2ccccc2)NC(=O)[C@H](CC(C)C)NC(=O)CNC(=O)[C@H](CC(N)=O)NC(=O)[C@H](CCC(=O)O)NC(=O)[C@H](CC(=O)O)NC(=O)[C@H](CC(C)C)NC(=O)[C@H](C(C)C)NC(=O)[C@@H]2CCCN2C1=O) [CP2],IC50,"mAb 2C7; mAb 2C7 0.04 μg/ml, LOS-coated wells, read-out: concentration giving 50% inhibition of mAb 2C7 binding to immobilized 15253 LOS",107 µM
(KIPVLDENGLFAP-PEG2-KK)4-MAP4 [Tetra MAP 3.1],immunogenicity in BALB/c mice (IgG against 2C7+ LOS by ELISA),[1]; in vivo,poorly immunogenic
(KIPVLDENGLFAP-PEG2-KKC)4-Maleimide4-MAP4 (KIPVLDENGLFAP[PEG2″]KKC; also: four copies on a maleimide MAP4 core) [TetraMAP 3.2],immunogenicity in BALB/c mice (IgG against 2C7+ LOS by ELISA),[1]; [2],poorly immunogenic
KIPVLDENGLFAPGSKIPVLDENGLFAP [Mod3 linear dimer #1],immunogenicity in BALB/c mice (IgG against 2C7+ LOS by ELISA),"[1]; earlier peptide constructs, FIG. 18 and FIG. 19, listed as 15",non-immunogenic
same,immunogenicity in BALB/c mice (IgG against 2C7+ LOS by ELISA),"[1]; earlier peptide constructs, FIG. 18 and FIG. 19, listed as Mod3 linear dimer with GS linker",neither were immunogenic
SGPIPVLDENGLFAPGPC)4(Lys)2Lys-β-Ala-COOH [Tetra MAP 1.2],immunogenicity in BALB/c mice (IgG against 2C7+ LOS by ELISA),[1]; in vivo,Neither compound was superior
KIPVLDENGLFAPAAAGGKIPVLDENGLFAP [Mod3 linear dimer #2],comparative ability to inhibit mAb 2C7 binding to LOS (antigenicity),mAb 2C7; listed as Mod3 linear dimer with AAAGG (SEQ ID NO: 5) linker,better than the molecule with the AG linker
same,immunogenicity in BALB/c mice (IgG against 2C7+ LOS by ELISA),"[1]; earlier peptide constructs, FIG. 18 and FIG. 19, listed as 16",non-immunogenic
same,immunogenicity in BALB/c mice (IgG against 2C7+ LOS by ELISA),"[1]; earlier peptide constructs, FIG. 18 and FIG. 19, listed as Mod3 linear dimer with AAAGG (SEQ ID NO: 5) linker",neither were immunogenic
KIPVLDENGLFAP (SEQ ID NO: 3)-PEG2-KK (KIPVLDENGLFAP[PEG2′]KK) [Mod3],comparative ability to inhibit mAb 2C7 binding to LOS (antigenicity),mAb 2C7; listed as Mod 3,most antigenic
(CGPIPVLDENGLFAPGPC)4(Lys)2Lys-β-Ala-COOH [Tetra MAP 1.1],immunogenicity in BALB/c mice (IgG against 2C7+ LOS by ELISA),[1]; in vivo,Neither compound was superior; also recorded: elicited similar anti-LOS Ab levels as Tetra
